Results from patent US9580390B2, “Indazole compounds as kinase inhibitors and method of treating cancer with same” (University Health Network, priority 2011, dated 2017).
Where two headings read alike, the source gives them in different places.

How the values were obtained:
human TTK = target: T1, human TTK (Homo sapiens, UniProt P33981); assay: TTK inhibition assay (indirect ELISA); format: biochemical; settings: read-out: TTK IC50 Range
T1 construct: amino terminal GST fusion of full length human TTK; purchased Invitrogen
T1 sequence (P33981 1-857): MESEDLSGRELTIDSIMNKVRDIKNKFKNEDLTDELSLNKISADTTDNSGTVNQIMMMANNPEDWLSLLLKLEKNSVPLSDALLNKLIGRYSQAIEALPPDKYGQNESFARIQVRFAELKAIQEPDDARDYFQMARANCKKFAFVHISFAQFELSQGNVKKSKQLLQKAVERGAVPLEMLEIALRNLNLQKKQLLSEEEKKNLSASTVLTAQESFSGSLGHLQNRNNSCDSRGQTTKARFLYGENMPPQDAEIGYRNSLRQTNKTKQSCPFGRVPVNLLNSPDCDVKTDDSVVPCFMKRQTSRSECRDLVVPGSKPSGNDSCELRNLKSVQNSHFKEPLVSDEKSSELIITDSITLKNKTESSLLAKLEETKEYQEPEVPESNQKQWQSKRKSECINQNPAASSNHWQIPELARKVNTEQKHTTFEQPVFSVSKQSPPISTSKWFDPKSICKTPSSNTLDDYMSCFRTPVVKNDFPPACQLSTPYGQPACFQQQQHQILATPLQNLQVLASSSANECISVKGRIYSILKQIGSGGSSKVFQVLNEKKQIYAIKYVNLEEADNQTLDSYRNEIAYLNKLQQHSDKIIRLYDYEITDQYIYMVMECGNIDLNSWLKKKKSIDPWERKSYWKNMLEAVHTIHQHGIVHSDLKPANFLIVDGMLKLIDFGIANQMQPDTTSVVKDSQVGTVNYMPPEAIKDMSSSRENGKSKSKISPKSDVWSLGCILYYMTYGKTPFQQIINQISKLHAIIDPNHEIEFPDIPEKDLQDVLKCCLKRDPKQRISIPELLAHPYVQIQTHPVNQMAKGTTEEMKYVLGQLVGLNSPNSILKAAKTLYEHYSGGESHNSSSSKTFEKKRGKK

[1] = tested on: colon cancer cells (HCT116); assay: Cancer cell line growth inhibition (SRB assay); format: cell-based; settings: read-out: Cancer Cell Line GI50 Range HCT116
[2] = tested on: ovarian cancer cells (PA-1); assay: Cancer cell line growth inhibition (SRB assay); format: cell-based; settings: read-out: Cancer Cell Line GI50 Range PA-1
[3] = Homo sapiens, HCT-116, HCT116 colon cancer cells, SRB assay
[4] = PA-1 ovarian cancer cells, SRB assay

IC50 (human TTK) | GI50 [1, 3] | GI50 [2, 4] | GI50 ([1]; Homo sapiens, HCT-116) | GI50 ([2]; Homo sapiens, PA-1) | SMILES | GI50 ([1]; HCT116) | GI50 ([2]; PA-1)
< 100 nM | 100 to 500 nM | 100 to 500 nM |  |  | O=C(NCC1(c2ccccc2)CCCCC1)c1ccc2[nH]nc(-c3ccc(N4CCOCC4)cc3)c2c1 [Example A469, 3-(4-morpholinophenyl)-N-((1-phenylcyclohexyl)methyl)-1H-indazole-5-carboxamide] |  | 
< 100 nM | < 100 nM | < 100 nM |  |  | O=C(NCC1(N2CCOCC2)CCCCC1)c1ccc2[nH]nc(-c3ccc(N4CCC(O)CC4)cc3)c2c1 [Example A427, 3-(4-(4-hydroxypiperidin-1-yl)phenyl)-N-((1-morpholinocyclohexyl)methyl)-1H-indazole-5-carboxamide] |  | 
< 100 nM |  |  | 100 to 500 nM | 100 to 500 nM | O=C(NCC1(c2cccs2)CCOCC1)c1ccc2[nH]nc(-c3ccc(OC4CCN(C5COC5)CC4)cc3)c2c1 [Example A433, 3-(4-((1-(oxetan-3-yl)piperidin-4-yl)oxy)phenyl)-N-((4-(thiophen-2-yl)tetrahydro-2H-pyran-4-yl)methyl)-1H-indazole-5-carboxamide] |  | 
< 100 nM | 100 to 500 nM | 100 to 500 nM |  |  | Cc1ccccc1CC1(NC(=O)c2ccc3[nH]nc(-c4ccc(OC5CCN(C)CC5)cc4)c3c2)CC1 [Example A127, N-(1-(2-methylbenzyl)cyclopropyl)-3-(4-((1-methylpiperidin-4-yl)oxy)phenyl)-1H-indazole-5-carboxamide] |  | 
< 100 nM |  |  | < 100 nM | < 100 nM | CC(C)(O)C1CCN(c2ccc(-c3n[nH]c4ccc(C(=O)N[C@H](c5ccccn5)C5CC5)cc34)cc2)CC1 [Example A351, (S)-N-(cyclopropyl(pyridin-2-yl)methyl)-3-(4-(4-(2-hydroxypropan-2-yl)piperidin-1-yl)phenyl)-1H-indazole-5-carboxamide] |  | 
< 100 nM |  |  | < 100 nM | < 100 nM | CC(C)CC(NC(=O)c1ccc2[nH]nc(-c3ccc(OC4CCN(C5COC5)CC4)cc3)c2c1)c1ccccn1 (centres unmarked) [Example A291, N-(3-methyl-1-(pyridin-2-yl)butyl)-3-(4-((1-(oxetan-3-yl)piperidin-4-yl)oxy)phenyl)-1H-indazole-5-carboxamide] |  | 
< 100 nM |  |  | 100 to 500 nM | 100 to 500 nM | CC(C)CC(NC(=O)c1ccc2[nH]nc(-c3ccc(OC4CCN(C5COC5)CC4)cc3)c2c1)c1ccccc1 (centres unmarked) [Example A290, N-(3-methyl-1-phenylbutyl)-3-(4-((1-(oxetan-3-yl)piperidin-4-yl)oxy)phenyl)-1H-indazole-5-carboxamide] |  | 
100 to 500 nM | > 500 nM |  |  |  | O=C(Nc1ccc2[nH]nc(-c3ccc(CN4CCOCC4)cc3)c2c1)C1CCCc2ccccc21 (centres unmarked) [Example A23, N-(3-(4-(morpholinomethyl)phenyl)-1H-indazol-5-yl)-1,2,3,4-tetrahydronaphthalene-1-carboxamide] |  | 
> 500 nM | > 500 nM |  |  |  | O=C(Nc1ccc2[nH]nc(-c3ccc(N4CCOCC4)cc3)c2c1)Nc1ccccc1Cl [Example A66, 1-(2-chlorophenyl)-3-(3-(4-morpholinophenyl)-1H-indazol-5-yl)urea] |  | 
100 to 500 nM | > 500 nM |  |  |  | O=C(NC(c1ccccc1)C1CC1)c1ccc2[nH]nc(-c3ccc(N4CCOCC4)c(F)c3)c2c1 (centres unmarked) [Example A65, N-(cyclopropyl(phenyl)methyl)-3-(3-fluoro-4-morpholinophenyl)-1H-indazole-5-carboxamide] |  | 
< 100 nM | > 500 nM |  |  |  | C[C@@H]1CN(C2(CNC(=O)c3ccc4[nH]nc(-c5ccc(OC6CCN(C)CC6)cc5)c4c3)CCCCC2)C[C@H](C)O1 [Example A452, N-((1-((2S,6R)-2,6-dimethylmorpholino)cyclohexyl)methyl)-3-(4-((1-methylpiperidin-4-yl)oxy)phenyl)-1H-indazole-5-carboxamide] |  | 
100 to 500 nM | > 500 nM |  |  |  | CN1CCC(Oc2ccc(-c3n[nH]c4ccc(NC(=O)Nc5ccccc5F)cc34)cc2)CC1 [Example A56, 1-(2-fluorophenyl)-3-(3-(4-((1-methylpiperidin-4-yl)oxy)phenyl)-1H-indazol-5-yl)urea] |  | 

Continued, molecule first:

SMILES | IC50 (human TTK) | GI50 [1, 3] | GI50 [2, 4] | GI50 ([1]; Homo sapiens, HCT-116) | GI50 ([2]; Homo sapiens, PA-1) | GI50 ([1]; HCT116) | GI50 ([2]; PA-1)
O=CN1C2CCC1CC(Oc1ccc(-c3n[nH]c4ccc(C(=O)N[C@@H](c5ccccn5)C5CC5)cc34)cc1)C2 (stereo partly drawn) [Example A353, N-((R)-cyclopropyl(pyridin-2-yl)methyl)-3-(4-(((1R,3R,5S)-8-formyl-8-azabicyclo[3.2.1]octan-3-yl)oxy)phenyl)-1H-indazole-5-carboxamide] | < 100 nM |  |  | < 100 nM | < 100 nM |  | 
CN1C2COCC1CC(Oc1ccc(-c3n[nH]c4ccc(C(=O)N[C@H](c5ccccn5)C5CC5)cc34)cc1)C2 (stereo partly drawn) [Example A389, N-((S)-cyclopropyl(pyridin-2-yl)methyl)-3-(4-(((1R,5S,7s)-9-methyl-3-oxa-9-azabicyclo[3.3.1]nonan-7-yl)oxy)phenyl)-1H-indazole-5-carboxamide] | < 100 nM |  |  | < 100 nM | < 100 nM |  | 
CC(C)C(NC(=O)c1ccc2[nH]nc(-c3ccc(OC4CC5CCC(C4)N5C)cc3)c2c1)c1ccccn1 (centres unmarked) [Example A396, N-(2-methyl-1-(pyridin-2-yl)propyl)-3-(4-((8-methyl-8-azabicyclo [3.2.1]octan-3-yl)oxy)phenyl)-1H-indazole-5-carboxamide] | < 100 nM |  |  |  |  | < 100 nM | < 100 nM
O=C(NCC1(N2CCOCC2)CCCCC1)c1ccc2[nH]nc(-c3ccc(N4CC5CCC(C4)O5)cc3)c2c1 [Example A483, 3-(4-(8-oxa-3-azabicydo[3.2.1]octan-3-yl)phenyl)-N-((1-morpholinocyclohexyl)methyl)-1H-indazole-5-carboxamide] | < 100 nM |  |  | 100 to 500 nM | 100 to 500 nM |  | 
CN1C2CCC1CC(Oc1ccc(-c3n[nH]c4ccc(C(=O)N[C@H](c5ccccn5)C5CC5)cc34)cc1)C2 (stereo partly drawn) [Example A397, N-((S)-cyclopropyl(pyridin-2-yl)methyl)-3-(4-((8-methyl-8-azabicyclo[3.2.1]octan-3-yl)oxy)phenyl)-1H-indazole-5-carboxamide] | < 100 nM |  |  | < 100 nM | < 100 nM |  | 
O=C(Nc1ccc2[nH]nc(-c3ccc(NC4CCC(O)CC4)cc3)c2c1)C(c1ccsc1)N1CCCC1 (single isomer, unassigned) [Example A105, rel-N-(3-(4-(((1r,4r)-4-hydroxycyclohexyl)amino)phenyl)-1H-indazol-5-yl)-2-(pyrrolidin-1-yl)-2-(thiophen-3-yl)acetamide] | < 100 nM | < 100 nM | < 100 nM |  |  |  | 
CN1CCN(C(=O)c2cccc(-c3n[nH]c4ccc(NC(=O)C(c5ccsc5)N5CCCC5)cc34)c2)CC1 (centres unmarked) [Example A96, N-(3-(3-(4-Methylpiperazine-1-carbonyl)phenyl)-1H-indazol-5-yl)-2-(pyrrolidin-1-yl)-2-(thiophen-3-yl)acetamide] | > 500 nM | > 500 nM | > 500 nM |  |  |  | 
C[C@@H]1CN(C2(CNC(=O)c3ccc4[nH]nc(-c5ccc(N6CCOCC6)cc5)c4c3)CCCCC2)C[C@H](C)O1 [Example A451, N((1-((2S,6R)-2,6-dimethylmorpholino)cyclohexyl)methyl)-3-(4-morpholinophenyl)-1H-indazole-5-carboxamide] | 100 to 500 nM | > 500 nM |  |  |  |  | 
O=C(Nc1ccc2[nH]nc(-c3ccc(N4CCOCC4)nc3)c2c1)C(c1ccsc1)N1CCCC1 (centres unmarked) [Example A52, N-(3-(6-morpholinopyridin-3-yl)-1H-indazol-5-yl)-2-(pyrrolidin-1-yl)-2-(thiophen-3-yl)acetamide] | < 100 nM | 100 to 500 nM |  |  |  |  | 
O=C(NCC1(N2CCCCC2)CCCCC1)c1ccc2[nH]nc(-c3ccc(N4CCOCC4)cc3)c2c1 [Example A446, 3-(4-morpholinophenyl)-N-((1-(piperidin-1-yl)cyclohexyl)methyl)-1H-indazole-5-carboxamide] | 100 to 500 nM | 100 to 500 nM |  |  |  |  | 
CN1CCN(C2(CNC(=O)c3ccc4[nH]nc(-c5ccc(N6CCOCC6)cc5)c4c3)CCCCC2)CC1 [Example A448, N-((1-(4-methylpiperazin-1-yl)cyclohexyl)methyl)-3-(4-morpholinophenyl)-1H-indazole-5-carboxamide] | < 100 nM | 100 to 500 nM |  |  |  |  | 
Cc1cc(-c2n[nH]c3ccc(NC(=O)C(c4ccsc4)N4CCCC4)cc23)ccc1N1CCOCC1 (centres unmarked) [Example A59, N-(3-(3-methyl-4-morpholinophenyl)-1H-indazol-5-yl)-2-(pyrrolidin-1-yl)-2-(thiophen-3-yl)acetamide] | 100 to 500 nM | > 500 nM |  |  |  |  | 
